# pIC50: −log10 of the molar value.
# How the values were obtained:
# Cholinesterase [1] = target: T1, Cholinesterase (Equus caballus, UniProt P81908); experiment: Inhibition of equine serum BuChE by Ellman's method
# Acetylcholinesterase [2] = target: T2, Acetylcholinesterase (Electrophorus electricus, UniProt O42275)
# Description: (§1) Inhibition of electric eel AChE by Ellman's method
# Cholinesterase [3] = target: T1, Cholinesterase; experiment: Inhibition of equine serum BuChE using butylthiocholine chloride as substrate peincubated for 15 mins followed by substrate addition measured at 1 min interval by Ellman's method
# Acetylcholinesterase [4] = target: T2, Acetylcholinesterase; remark: listed apart in the source
# Description: Inhibition of electric eel AChE using acetylthiocholine chloride as substrate peincubated for 15 mins followed by substrate addition measured at 1 min interval by Ellman's method
# Acetylcholinesterase [5] = target: T2, Acetylcholinesterase; remark: listed apart in the source
# Description: as §1
# Acetylcholinesterase [6] = target: Acetylcholinesterase (Torpedo californica, UniProt P04058); experiment: Inhibition of Torpedo californica AChE using acetylthiocholine chloride as substrate peincubated for 15 mins followed by substrate addition measured after 5 mins by Ellman's method; design: species or system Tetronarce californica
# Sequence of Acetylcholinesterase (Torpedo californica, UniProt P04058) (P04058 whole entry): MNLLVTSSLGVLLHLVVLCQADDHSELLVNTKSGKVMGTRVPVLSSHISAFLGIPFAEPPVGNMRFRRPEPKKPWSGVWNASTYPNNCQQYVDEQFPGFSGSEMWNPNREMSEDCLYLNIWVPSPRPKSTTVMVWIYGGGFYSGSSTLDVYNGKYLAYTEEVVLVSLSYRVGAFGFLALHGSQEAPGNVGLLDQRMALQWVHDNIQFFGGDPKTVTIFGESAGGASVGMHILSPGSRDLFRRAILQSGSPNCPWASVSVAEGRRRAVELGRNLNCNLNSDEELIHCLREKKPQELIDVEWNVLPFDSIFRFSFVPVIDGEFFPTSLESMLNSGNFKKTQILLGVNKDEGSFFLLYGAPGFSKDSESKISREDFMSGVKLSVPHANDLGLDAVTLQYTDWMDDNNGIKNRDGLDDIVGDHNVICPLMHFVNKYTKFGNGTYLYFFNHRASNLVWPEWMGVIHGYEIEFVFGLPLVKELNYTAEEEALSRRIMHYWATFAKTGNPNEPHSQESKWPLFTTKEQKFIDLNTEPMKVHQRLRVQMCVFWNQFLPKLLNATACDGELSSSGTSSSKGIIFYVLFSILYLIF
# [7] = target: Amyloid-beta precursor protein (Homo sapiens) (UniProt P05067); experiment: Inhibition of self-induced amyloid beta (1 to 42) (unknown origin) aggregation at 100 uM after 24 hrs in presence of copper by ThT fluorescence assay relative to control
# Sequence of Amyloid-beta precursor protein (Homo sapiens) (P05067 whole entry): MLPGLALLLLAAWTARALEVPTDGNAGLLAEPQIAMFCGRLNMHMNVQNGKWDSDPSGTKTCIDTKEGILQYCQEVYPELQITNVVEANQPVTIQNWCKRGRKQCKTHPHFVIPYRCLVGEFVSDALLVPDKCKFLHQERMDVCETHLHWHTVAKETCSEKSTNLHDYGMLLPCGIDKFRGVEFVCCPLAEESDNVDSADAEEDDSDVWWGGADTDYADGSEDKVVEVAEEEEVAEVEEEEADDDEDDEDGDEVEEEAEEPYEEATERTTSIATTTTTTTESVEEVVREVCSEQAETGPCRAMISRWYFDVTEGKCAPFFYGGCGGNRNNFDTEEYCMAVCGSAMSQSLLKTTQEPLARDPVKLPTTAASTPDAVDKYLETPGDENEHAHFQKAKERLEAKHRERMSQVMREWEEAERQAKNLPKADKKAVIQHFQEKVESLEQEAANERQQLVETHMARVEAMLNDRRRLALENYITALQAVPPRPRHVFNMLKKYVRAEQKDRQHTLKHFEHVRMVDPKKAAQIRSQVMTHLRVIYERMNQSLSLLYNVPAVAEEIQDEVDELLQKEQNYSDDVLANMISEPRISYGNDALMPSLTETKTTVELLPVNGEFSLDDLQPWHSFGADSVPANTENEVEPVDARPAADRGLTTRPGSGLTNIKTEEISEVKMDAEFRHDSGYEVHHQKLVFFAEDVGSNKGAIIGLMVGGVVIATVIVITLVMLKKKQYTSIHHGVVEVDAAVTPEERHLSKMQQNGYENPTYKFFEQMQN
# [8] = target: Amyloid-beta precursor protein (Homo sapiens) (UniProt P05067); experiment: Inhibition of self-induced amyloid beta (1 to 42) (unknown origin) aggregation at 100 uM after 24 hrs by ThT fluorescence assay relative to control
# Acetylcholinesterase [9] = target: T3, Acetylcholinesterase (Homo sapiens, UniProt P22303); experiment: Inhibition of human AChE using acetylthiocholine chloride as substrate peincubated for 15 mins followed by substrate addition measured at 1 min interval by Ellman's method
# T3 sequence (P22303 whole entry): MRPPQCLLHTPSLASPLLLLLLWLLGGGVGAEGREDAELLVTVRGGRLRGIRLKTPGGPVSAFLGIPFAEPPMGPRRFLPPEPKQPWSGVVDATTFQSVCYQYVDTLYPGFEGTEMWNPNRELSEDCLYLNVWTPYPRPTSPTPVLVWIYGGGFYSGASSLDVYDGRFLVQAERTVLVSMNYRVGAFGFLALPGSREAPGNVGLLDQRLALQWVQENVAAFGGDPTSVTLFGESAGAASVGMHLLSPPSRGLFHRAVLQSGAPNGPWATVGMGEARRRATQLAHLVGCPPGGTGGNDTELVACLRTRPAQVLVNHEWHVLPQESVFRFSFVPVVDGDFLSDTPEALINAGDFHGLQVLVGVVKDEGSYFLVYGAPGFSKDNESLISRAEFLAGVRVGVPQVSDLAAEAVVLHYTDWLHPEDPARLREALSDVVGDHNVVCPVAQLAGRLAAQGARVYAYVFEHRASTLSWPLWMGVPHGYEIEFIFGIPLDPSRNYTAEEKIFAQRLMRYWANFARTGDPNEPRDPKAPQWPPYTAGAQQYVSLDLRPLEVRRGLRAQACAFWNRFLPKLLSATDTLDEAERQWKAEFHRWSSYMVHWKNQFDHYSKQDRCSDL
# [10] = target: Cholinesterase (Homo sapiens) (UniProt P06276); details: 0.6 mg/kg
# Sequence of Cholinesterase (Homo sapiens) (P06276 whole entry): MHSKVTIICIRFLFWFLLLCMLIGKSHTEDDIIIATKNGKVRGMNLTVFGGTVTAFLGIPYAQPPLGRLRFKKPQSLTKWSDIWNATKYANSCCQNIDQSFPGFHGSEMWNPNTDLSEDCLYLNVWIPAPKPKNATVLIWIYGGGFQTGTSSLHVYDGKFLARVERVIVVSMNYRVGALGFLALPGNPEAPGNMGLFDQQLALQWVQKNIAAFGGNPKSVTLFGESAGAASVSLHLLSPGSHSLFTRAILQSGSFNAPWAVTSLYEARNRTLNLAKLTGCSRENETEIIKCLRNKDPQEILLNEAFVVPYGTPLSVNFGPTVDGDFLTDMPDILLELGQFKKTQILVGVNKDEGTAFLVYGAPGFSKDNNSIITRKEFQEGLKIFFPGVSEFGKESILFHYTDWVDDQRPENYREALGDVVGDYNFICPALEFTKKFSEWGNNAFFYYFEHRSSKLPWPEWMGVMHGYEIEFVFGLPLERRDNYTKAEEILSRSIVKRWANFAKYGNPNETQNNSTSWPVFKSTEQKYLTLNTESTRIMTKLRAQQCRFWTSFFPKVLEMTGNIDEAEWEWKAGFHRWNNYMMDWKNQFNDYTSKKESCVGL
# Acetylcholinesterase [11] = target: T3, Acetylcholinesterase; details: 0.6 mg/kg
# [12] = target: T4, Amine oxidase [flavin-containing] B (Rattus norvegicus, UniProt P19643); experiment: In-vivo inhibition of MAO B in rat brain at 26 mg/kg, po relative to control; assay type: functional, organism-based
# T4 sequence (P19643 whole entry): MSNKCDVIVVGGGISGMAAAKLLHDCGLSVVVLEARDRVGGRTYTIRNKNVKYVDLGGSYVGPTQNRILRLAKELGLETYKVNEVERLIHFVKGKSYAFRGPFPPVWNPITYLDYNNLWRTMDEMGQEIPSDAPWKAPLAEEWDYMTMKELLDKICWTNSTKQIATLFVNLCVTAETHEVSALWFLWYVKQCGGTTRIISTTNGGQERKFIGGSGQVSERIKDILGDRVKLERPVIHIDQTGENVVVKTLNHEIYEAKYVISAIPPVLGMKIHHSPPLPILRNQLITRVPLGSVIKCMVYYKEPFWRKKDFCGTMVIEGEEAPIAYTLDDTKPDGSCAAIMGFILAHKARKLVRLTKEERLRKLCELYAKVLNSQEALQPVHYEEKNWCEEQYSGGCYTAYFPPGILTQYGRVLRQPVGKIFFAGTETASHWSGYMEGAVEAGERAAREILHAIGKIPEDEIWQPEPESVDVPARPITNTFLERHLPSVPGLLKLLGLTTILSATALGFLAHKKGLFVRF
# [13] = target: T5, Amine oxidase [flavin-containing] A (Rattus norvegicus, UniProt P21396); experiment: In-vivo inhibition of MAO A in rat brain at 26 mg/kg, po relative to control; assay type: functional, organism-based
# T5 sequence (P21396 whole entry): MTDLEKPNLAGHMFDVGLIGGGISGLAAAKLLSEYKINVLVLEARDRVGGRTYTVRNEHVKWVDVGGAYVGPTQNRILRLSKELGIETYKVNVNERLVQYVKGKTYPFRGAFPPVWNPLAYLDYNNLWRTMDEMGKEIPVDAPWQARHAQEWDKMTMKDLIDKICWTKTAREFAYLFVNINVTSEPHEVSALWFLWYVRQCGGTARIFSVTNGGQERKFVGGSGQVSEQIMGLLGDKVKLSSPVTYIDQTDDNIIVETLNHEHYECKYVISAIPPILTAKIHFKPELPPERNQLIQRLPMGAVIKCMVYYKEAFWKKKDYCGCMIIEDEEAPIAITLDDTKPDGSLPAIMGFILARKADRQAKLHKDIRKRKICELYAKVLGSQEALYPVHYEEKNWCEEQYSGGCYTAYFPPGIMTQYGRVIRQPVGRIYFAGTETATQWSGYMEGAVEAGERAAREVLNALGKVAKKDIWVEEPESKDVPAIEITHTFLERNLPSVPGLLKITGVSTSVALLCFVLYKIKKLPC
# [14] = target: T6, Amine oxidase [flavin-containing] A (Homo sapiens, UniProt P21397); experiment: Inhibition of human MAO A
# T6 sequence (P21397 whole entry): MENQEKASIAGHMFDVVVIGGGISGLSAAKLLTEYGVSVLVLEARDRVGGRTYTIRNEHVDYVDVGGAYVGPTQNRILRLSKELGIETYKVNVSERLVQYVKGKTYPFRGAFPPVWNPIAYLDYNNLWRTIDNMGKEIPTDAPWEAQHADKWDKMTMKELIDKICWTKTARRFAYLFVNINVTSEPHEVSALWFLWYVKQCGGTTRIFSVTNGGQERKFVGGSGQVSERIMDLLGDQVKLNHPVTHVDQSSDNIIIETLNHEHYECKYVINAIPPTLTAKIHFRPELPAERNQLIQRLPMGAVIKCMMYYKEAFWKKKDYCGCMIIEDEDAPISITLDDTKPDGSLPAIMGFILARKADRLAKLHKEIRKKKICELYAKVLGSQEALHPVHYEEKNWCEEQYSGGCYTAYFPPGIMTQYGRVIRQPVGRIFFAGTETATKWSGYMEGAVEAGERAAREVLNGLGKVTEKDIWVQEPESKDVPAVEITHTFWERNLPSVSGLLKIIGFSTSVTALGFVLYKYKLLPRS
# [15] = target: T7, Amine oxidase [flavin-containing] B (Homo sapiens, UniProt P27338); experiment: Inhibition of human MAO B
# T7 sequence (P27338 whole entry): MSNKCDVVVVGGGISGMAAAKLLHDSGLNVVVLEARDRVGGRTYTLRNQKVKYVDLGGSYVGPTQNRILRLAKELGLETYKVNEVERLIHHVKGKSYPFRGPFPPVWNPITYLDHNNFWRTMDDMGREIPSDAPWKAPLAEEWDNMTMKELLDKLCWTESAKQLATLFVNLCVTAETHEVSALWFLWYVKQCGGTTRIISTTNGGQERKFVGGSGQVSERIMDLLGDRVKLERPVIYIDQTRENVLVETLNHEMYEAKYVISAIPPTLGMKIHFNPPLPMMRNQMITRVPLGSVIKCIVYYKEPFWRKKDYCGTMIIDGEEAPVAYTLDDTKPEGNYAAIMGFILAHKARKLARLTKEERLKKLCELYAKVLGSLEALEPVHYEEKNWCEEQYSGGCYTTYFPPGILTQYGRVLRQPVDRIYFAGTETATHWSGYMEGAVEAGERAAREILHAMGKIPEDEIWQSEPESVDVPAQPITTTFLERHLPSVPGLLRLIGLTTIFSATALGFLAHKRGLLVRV
# T2 sequence (O42275 whole entry): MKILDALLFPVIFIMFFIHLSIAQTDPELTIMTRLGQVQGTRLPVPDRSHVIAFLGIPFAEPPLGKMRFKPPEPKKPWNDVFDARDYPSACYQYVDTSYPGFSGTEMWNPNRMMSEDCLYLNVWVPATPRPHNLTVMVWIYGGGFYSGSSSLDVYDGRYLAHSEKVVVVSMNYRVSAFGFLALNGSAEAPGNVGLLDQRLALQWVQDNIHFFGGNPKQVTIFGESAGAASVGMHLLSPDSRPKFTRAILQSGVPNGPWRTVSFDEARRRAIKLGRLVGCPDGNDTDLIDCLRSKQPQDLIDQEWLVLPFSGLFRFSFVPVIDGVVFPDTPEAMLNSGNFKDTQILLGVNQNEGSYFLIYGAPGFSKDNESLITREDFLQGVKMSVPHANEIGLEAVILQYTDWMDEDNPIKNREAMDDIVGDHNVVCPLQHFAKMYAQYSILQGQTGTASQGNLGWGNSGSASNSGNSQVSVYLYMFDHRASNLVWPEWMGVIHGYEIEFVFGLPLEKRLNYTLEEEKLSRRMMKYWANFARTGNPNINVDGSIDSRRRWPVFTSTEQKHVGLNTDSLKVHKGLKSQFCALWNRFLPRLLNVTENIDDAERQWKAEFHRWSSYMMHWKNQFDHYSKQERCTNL
# T1 sequence (P81908 whole entry): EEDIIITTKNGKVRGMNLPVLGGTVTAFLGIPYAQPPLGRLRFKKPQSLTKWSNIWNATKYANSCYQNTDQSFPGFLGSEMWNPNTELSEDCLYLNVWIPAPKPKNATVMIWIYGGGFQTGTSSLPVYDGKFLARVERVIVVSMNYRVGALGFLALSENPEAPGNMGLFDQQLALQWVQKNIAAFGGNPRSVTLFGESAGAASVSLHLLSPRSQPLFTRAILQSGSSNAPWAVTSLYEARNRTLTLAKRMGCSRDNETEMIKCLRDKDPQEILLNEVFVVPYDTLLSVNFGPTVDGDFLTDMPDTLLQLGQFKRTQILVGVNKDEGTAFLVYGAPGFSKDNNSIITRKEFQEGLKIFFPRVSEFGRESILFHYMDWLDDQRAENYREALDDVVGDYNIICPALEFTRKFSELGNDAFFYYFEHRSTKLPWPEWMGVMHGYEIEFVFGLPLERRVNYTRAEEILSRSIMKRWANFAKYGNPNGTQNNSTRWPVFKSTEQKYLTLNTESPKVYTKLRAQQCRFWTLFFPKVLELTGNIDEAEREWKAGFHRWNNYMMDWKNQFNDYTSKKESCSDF
compound,measurement,setting,value
C#CCN(C)c1nc(NCCCCC2CCN(Cc3ccccc3)CC2)c(C#N)cc1C#N,pIC50,Cholinesterase [1],6.22
same,pIC50,Acetylcholinesterase [2],8.96
C#CCN(CC#C)c1c2c(nc3cc(Cl)ccc13)CCCC2,pIC50,Cholinesterase [3],5.27
same,pIC50,Acetylcholinesterase [4],6.05
C#CCN(C)Cc1cc2ccccc2oc1=O,pIC50,Acetylcholinesterase [5],4.84 to 5.56
C=CCSC[C@@H](N)C(=O)NCCCNc1c2c(nc3cc(Cl)ccc13)CCCC2,pIC50,Acetylcholinesterase [6],6.52
C=CCSCC(NC(=O)CCCNc1c2c(nc3ccccc13)CCCC2)C(=O)Nc1nc2ccccc2s1 (stereo unspecified),pIC50,Acetylcholinesterase [6],6.55 to 6.60
C#CCSC[C@@H](N)C(=O)NCCCCNc1c2c(nc3ccccc13)CCCC2,pIC50,Acetylcholinesterase [6],5.92
C=CCSCC(NC(=O)CCCNc1c2c(nc3cc(Cl)ccc13)CCCC2)C(=O)Nc1nc2ccccc2s1 (stereo unspecified),pIC50,Acetylcholinesterase [6],6.55 to 6.60
same,inhibition,[7],56.6%
same,inhibition,[8],31.6%
C=CCSC[C@@H](N)C(=O)NCCCNc1c2c(nc3ccccc13)CCCC2,pIC50,Acetylcholinesterase [6],6.06
C#CCNCCNc1c2c(nc3ccccc13)CCCC2,pIC50,Acetylcholinesterase [4],6.65
C=CCSCC(NC(=O)CCCCCNc1c2c(nc3ccccc13)CCCC2)C(=O)Nc1nc2ccccc2s1 (stereo unspecified),pIC50,Acetylcholinesterase [6],6.55 to 6.60
same,inhibition,[8],78.2%
C#CCSCC(NC(=O)CCCCCNc1c2c(nc3ccccc13)CCCC2)C(=O)Nc1nc2ccccc2s1 (stereo unspecified),pIC50,Acetylcholinesterase [6],6.55 to 6.60
C#CCSC[C@@H](N)C(=O)NCCCNc1c2c(nc3cc(Cl)ccc13)CCCC2,pIC50,Acetylcholinesterase [6],6.25
C#CCNc1c2c(nc3cc(Cl)ccc13)CCCC2,pIC50,Acetylcholinesterase [9],8.03
same,pIC50,Cholinesterase [3],7.08
same,pIC50,Acetylcholinesterase [4],7.95
C#CCSCC(NC(=O)CCCNc1c2c(nc3ccccc13)CCCC2)C(=O)Nc1nc2ccccc2s1 (stereo unspecified),pIC50,Acetylcholinesterase [6],6.55 to 6.60
same,inhibition,[8],77.2%
C#CCN(C)Cc1cc2cc(OC)c(O)cc2oc1=O,pIC50,Acetylcholinesterase [5],4.84 to 5.56
CCN(C)C(=O)Oc1cccc([C@H](C)N(C)C)c1,inhibition,[10],25%
same,inhibition,Acetylcholinesterase [11],40%
C#CCN[C@@H]1CCc2ccc(OC(=O)N(C)CC)cc21 [LADOSTIGIL],inhibition at 26 mg/kg,[12],70%
same,inhibition at 26 mg/kg,[13],70%
C#CCSCC(NC(=O)CCCNc1c2c(nc3cc(Cl)ccc13)CCCC2)C(=O)Nc1nc2ccccc2s1 (stereo unspecified),pIC50,Acetylcholinesterase [6],6.60
same,inhibition,[7],37.6%
same,inhibition,[8],24.1%
C=CCSCC(NC(=O)CCCCCNc1c2c(nc3cc(Cl)ccc13)CCCC2)C(=O)Nc1nc2ccccc2s1 (stereo unspecified),pIC50,Acetylcholinesterase [6],6.55
C#CCNc1c2c(nc3ccccc13)CCCC2,pIC50,Acetylcholinesterase [9],7.29
same,pIC50,Cholinesterase [3],7.11
same,pIC50,Acetylcholinesterase [4],6.98 to 7.29
C#CCSCC(NC(=O)CCCCCNc1c2c(nc3cc(Cl)ccc13)CCCC2)C(=O)Nc1nc2ccccc2s1 (stereo unspecified),pIC50,Acetylcholinesterase [6],6.55 to 6.60
Nc1c2c(nc3cc(Cl)ccc13)CCCC2,pIC50,Acetylcholinesterase [4],7.63
C#CCN(C)Cc1cc2ccc(OC)cc2oc1=O,pIC50,Acetylcholinesterase [5],4.84 to 5.56
C#CCN(C)Cc1cc2cc(OCCCC3CCN(Cc4ccccc4)CC3)ccc2n1C,pIC50,[14],8.26
same,pIC50,[15],6.75
C#CCN(CC#C)CCNc1c2c(nc3ccccc13)CCCC2,pIC50,Cholinesterase [3],6.45
same,pIC50,Acetylcholinesterase [4],6.47

# From ChEMBL document CHEMBL4616591, “Propargylamine-derived multi-target directed ligands for Alzheimer's disease therapy” (Bioorg Med Chem Lett, 2020)
